Target: GCN2 (Homo sapiens, UniProt Q9P2K8)
Experiment: GCN2 enzymatic endpoint assay: phosphorylation of GFP-eIF2α measured by TR-FRET (Lanthascreen)
Type: biochemical
Conditions: tested as described in Example 77; compound and/or hydrochloride, dihydrochloride or trifluoroacetic acid salt; read-out: IC 50 Activity
How it was run: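 Endpoint kinase reaction with 2 μM ATP and 80 nM GFP-labelled eIF2α substrate, run at room temperature for 90 min, then stopped with EDTA. Phospho-substrate detected by terbium-antibody TR-FRET, activity taken as the 520/495 nm emission ratio.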

Chain of GCN2 (Q9P2K8 whole entry): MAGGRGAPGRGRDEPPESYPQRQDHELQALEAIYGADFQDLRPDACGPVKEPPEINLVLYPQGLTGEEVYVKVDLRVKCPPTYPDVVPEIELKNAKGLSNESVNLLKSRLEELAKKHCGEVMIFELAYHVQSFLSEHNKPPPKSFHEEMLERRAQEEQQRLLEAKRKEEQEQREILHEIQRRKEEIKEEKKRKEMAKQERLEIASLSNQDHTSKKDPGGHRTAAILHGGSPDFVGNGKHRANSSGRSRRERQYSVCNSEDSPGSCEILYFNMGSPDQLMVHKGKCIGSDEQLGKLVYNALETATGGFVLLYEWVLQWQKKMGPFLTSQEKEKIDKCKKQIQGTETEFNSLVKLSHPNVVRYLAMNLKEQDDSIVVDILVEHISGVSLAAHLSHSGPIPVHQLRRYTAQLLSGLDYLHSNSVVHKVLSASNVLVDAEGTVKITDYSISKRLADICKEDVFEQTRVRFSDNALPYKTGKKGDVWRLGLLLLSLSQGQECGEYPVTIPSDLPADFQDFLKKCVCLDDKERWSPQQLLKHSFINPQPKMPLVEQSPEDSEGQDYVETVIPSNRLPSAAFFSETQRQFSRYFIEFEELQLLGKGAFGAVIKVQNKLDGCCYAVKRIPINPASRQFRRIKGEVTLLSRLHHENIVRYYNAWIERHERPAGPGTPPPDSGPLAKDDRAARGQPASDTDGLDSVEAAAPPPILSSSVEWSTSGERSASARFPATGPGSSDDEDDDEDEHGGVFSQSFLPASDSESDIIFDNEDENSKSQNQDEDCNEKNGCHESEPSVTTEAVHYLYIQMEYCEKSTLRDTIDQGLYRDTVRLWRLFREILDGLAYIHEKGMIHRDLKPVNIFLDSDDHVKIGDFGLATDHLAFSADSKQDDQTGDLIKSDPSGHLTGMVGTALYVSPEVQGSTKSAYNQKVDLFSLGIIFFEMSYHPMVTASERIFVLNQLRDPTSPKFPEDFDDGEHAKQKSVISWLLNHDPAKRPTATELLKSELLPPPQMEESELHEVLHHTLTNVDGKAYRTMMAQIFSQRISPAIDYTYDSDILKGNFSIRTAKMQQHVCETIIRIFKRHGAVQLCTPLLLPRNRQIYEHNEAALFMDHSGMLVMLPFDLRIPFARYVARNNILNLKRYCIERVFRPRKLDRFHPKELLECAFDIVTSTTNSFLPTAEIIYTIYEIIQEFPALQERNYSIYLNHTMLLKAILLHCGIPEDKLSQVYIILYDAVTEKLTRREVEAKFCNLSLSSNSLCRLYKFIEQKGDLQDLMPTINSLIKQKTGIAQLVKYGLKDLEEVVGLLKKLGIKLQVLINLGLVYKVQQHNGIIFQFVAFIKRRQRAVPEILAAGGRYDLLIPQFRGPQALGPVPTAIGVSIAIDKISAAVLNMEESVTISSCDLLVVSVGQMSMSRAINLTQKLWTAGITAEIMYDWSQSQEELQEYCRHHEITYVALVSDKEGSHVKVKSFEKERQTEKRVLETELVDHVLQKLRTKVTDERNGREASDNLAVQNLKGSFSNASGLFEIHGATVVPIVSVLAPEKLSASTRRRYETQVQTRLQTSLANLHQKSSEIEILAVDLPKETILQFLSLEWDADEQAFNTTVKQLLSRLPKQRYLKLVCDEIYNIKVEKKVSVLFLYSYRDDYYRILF

| IC50 | Compound |
| --- | --- |
| 25 to 200 nM | CNC(=O)[C@]1(C)CC[C@@H](Nc2ncc3c(Br)nn(-c4ccc5c(c4)CN(S(=O)(=O)CC(F)F)C5)c3n2)C1 [(1R,3R)-3-[[3-bromo-1-[2-(2,2-difluoroethylsulfonyl)isoindolin-5-yl]pyrazolo[3,4-d]pyrimidin-6-yl]amino]-N,1-dimethyl-cyclopentanecarboxamide] |
| 25 to 200 nM | CNC(=O)[C@]1(C)CC[C@@H](Nc2ncc3c(Br)nn(-c4ccc5c(c4)CN(C(=O)CO)CC5)c3n2)C1 [(1R,3R)-3-[[3-bromo-1-[2-(2-hydroxyacetyl)-3,4-dihydro-1H-isoquinolin-7-yl]pyrazolo [3,4-d]pyrimidin-6-yl]amino]-N,1-dimethyl-cyclopentanecarboxamide] |
| 25 to 200 nM | CNC(=O)[C@]1(C)CC[C@@H](Nc2ncc3c(Br)nn(-c4ccc5nc(N6CCN(C)CC6)ncc5c4)c3n2)C1 [(1R,3R)-3-[[3-bromo-1-[2-(4-methylpiperazin-1-yl)quinazolin-6-yl]pyrazolo[3,4-d]pyrimidin-6-yl]amino]-N,1-dimethyl-cyclo-pentanecarboxamide; 2,2,2-trifluoroacetic acid] |
| 25 to 200 nM | CNC(=O)[C@]1(C)CC[C@@H](Nc2ncc3c(Br)nn(-c4ccc5ncc(C(C)(C)O)cc5c4)c3n2)C1 [(1R,3R)-3-[[3-bromo-1-[3-(1-hydroxy-1-methyl-ethyl)-6-quinolyl]pyrazolo[3,4-d]pyrimidin-6-yl]amino]-N,1-dimethyl-cyclopentanecarboxamide] |
| < 25 nM | CNC(=O)[C@]1(C)CC[C@@H](Nc2ncc3c(Br)nn(-c4ccc(-c5nnc(C)s5)c(CC(C#N)CO)c4)c3n2)C1 (stereo partly drawn) [(1R,3R)-3-[[3-bromo-1-[3-(2-cyano-3-hydroxy-propyl)-4-(5-methyl-1,3,4-thiadiazol-2-yl)phenyl]pyrazolo[3,4-d]pyrimidin-6-yl]amino]-N,1-dimethyl-cyclopentanecarboxamide] |
| 25 to 200 nM | Cc1nnc(-c2ccc(-n3nc(Br)c4cnc(N[C@@H]5CC[C@@](C)(C(=O)NCC(F)F)C5)nc43)cc2CCC#N)s1 [(1R,3R)-3-[[3-bromo-1-[3-(2-cyanoethyl)-4-(5-methyl-1,3,4-thiadiazol-2-yl)phenyl]pyrazolo[3,4-d]pyrimidin-6-yl]amino]-N-(2,2-difluoroethyl)-1-methyl-cyclopentanecarboxamide] |
| 25 to 200 nM | Cc1nnc(-c2ccc(-n3nc(Br)c4cnc(N[C@@H]5CC[C@@](C)(C(=O)NC6CC6)C5)nc43)cc2CCC#N)s1 [(1R,3R)-3-[[3-bromo-1-[3-(2-cyanoethyl)-4-(5-methyl-1,3,4-thiadiazol-2-yl)phenyl]pyrazolo[3,4-d]pyrimidin-6-yl]amino]-N-cyclopropyl-1-methyl-cyclopentane-carboxamide] |
| < 25 nM | CNC(=O)[C@]1(C)CC[C@@H](Nc2ncc3c(Br)nn(-c4ccc(-c5ncco5)c(OCCO)c4)c3n2)C1 [(1R,3R)-3-[[3-bromo-1-[3-(2-hydroxy-ethoxy)-4-oxazol-2-yl-phenyl]pyrazolo [3,4-d]pyrimidin-6-yl]amino]-N,1-dimethyl-cyclopentanecarboxamide] |
| 25 to 200 nM | CNC(=O)[C@]1(C)CC[C@@H](Nc2ncc3c(Br)nn(-c4ccc(-c5nnc(C)o5)c(CCO)c4)c3n2)C1 [(1R,3R)-3-[[3-bromo-1-[3-(2-hydroxyethyl)-4-(5-methyl-1,3,4-oxadiazol-2-yl)phenyl]pyrazolo[3,4-d]pyrimidin-6-yl]amino]-N,1-dimethyl-cyclopentanecarboxamide] |
| < 25 nM | CNC(=O)[C@]1(C)CC[C@@H](Nc2ncc3c(Br)nn(-c4ccc5ncc(CCO)cc5c4)c3n2)C1 [(1R,3R)-3-[[3-bromo-1-[3-(2-hydroxyethyl)-6-quinolyl]pyrazolo[3,4-d]pyrimidin-6-yl]amino]-N,1-dimethyl-cyclopentane-carboxamide] |

The remaining lines, values behind:

| Compound | IC50 |
| --- | --- |
| CNC(=O)[C@]1(C)CC[C@@H](Nc2ncc3c(Br)nn(-c4ccc5c(c4)CN(S(=O)(=O)C4COC4)C5)c3n2)C1 [(1R,3R)-3-[[3-bromo-1-[2-(oxetan-3-ylsulfonyl)isoindolin-5-yl]pyrazolo[3,4-d]pyrimidin-6-yl]amino]-N,1-dimethyl-cyclopentanecarboxamide] | 25 to 200 nM |
| CNC(=O)[C@]1(C)CC[C@@H](Nc2ncc3c(Br)nn(-c4ccc5c(c4)CN(C(=O)C4CN(C(=O)C(F)(F)F)C4)CC5)c3n2)C1 [(1R,3R)-3-[[3-bromo-1-[2-[1-(2,2,2-trifluoroacetyl)azetidine-3-carbonyl]-3,4-dihydro-1H-isoquinolin-7-yl]pyrazolo[3,4-d]pyrimidin-6-yl]amino]-N,1-dimethyl-cyclopentanecarboxamide] | 25 to 200 nM |
| CNC(=O)[C@]1(C)CC[C@@H](Nc2ncc3c(Br)nn(-c4ccc5nc(CNCCC#N)ccc5c4)c3n2)C1 [(1R,3R)-3-[[3-bromo-1-[2-[(2-cyanoethylamino)methyl]-6-quinolyl]pyrazolo[3,4-d]pyrimidin-6-yl]amino]-N,1-dimethyl-cyclopentane-carboxamide] | 25 to 200 nM |
| CNC(=O)[C@]1(C)CC[C@@H](Nc2ncc3c(Br)nn(-c4ccc(-c5ncco5)c(C(C)(C)C#N)c4)c3n2)C1 [(1R,3R)-3-[[3-bromo-1-[3-(1-cyano-1-methyl-ethyl)-4-oxazol-2-yl-phenyl]pyrazolo[3,4-d]pyrimidin-6-yl]amino]-N,1-dimethyl-cyclopentanecarboxamide] | 25 to 200 nM |
| CNC(=O)[C@]1(CCOC)CC[C@@H](Nc2ncc3c(Br)nn(-c4ccc(-c5nnc(C)s5)c(CCC#N)c4)c3n2)C1 [(1R,3R)-3-[[3-bromo-1-[3-(2-cyano-ethyl)-4-(5-methyl-1,3,4-thiadiazol-2-yl)phenyl]pyrazolo[3,4-d]pyrimidin-6-yl]amino]-1-(2-methoxyethyl)-N-methyl-cyclopentanecarboxamide; 2,2,2-trifluoroacetic acid] | 25 to 200 nM |
| CNC(=O)[C@]1(CO)CC[C@@H](Nc2ncc3c(Br)nn(-c4ccc(-c5nnc(C)s5)c(CCC#N)c4)c3n2)C1 [(1R,3R)-3-[[3-bromo-1-[3-(2-cyanoethyl)-4-(5-methyl-1,3,4-thiadiazol-2-yl)phenyl]pyrazolo[3,4-d]pyrimidin-6-yl]amino]-1-(hydroxymethyl)-N-methyl-cyclopentane-carboxamide] | 25 to 200 nM |
| COCCNC(=O)[C@]1(C(C)C)CC[C@@H](Nc2ncc3c(Br)nn(-c4ccc(-c5nnc(C)s5)c(CCC#N)c4)c3n2)C1 [(1R,3R)-3-[[3-bromo-1-[3-(2-cyanoethyl)-4-(5-methyl-1,3,4-thiadiazol-2-yl)phenyl]pyrazolo[3,4-d]pyrimidin-6-yl]amino]-1-isopropyl-N-(2-methoxyethyl)cyclopentane-carboxamide] | 25 to 200 nM |
| CNC(=O)[C@]1(C(C)C)CC[C@@H](Nc2ncc3c(Br)nn(-c4ccc(-c5nnc(C)s5)c(CCC#N)c4)c3n2)C1 [(1R,3R)-3-[[3-bromo-1-[3-(2-cyanoethyl)-4-(5-methyl-1,3,4-thiadiazol-2-yl)phenyl]pyrazolo[3,4-d]pyrimidin-6-yl]amino]-1-isopropyl-N-methyl-cyclopentane-carboxamide] | 25 to 200 nM |
| CNC(=O)[C@]1(C)CC[C@@H](Nc2ncc3c(Br)nn(-c4ccc(-c5nnc(C)s5)c(CCO)c4)c3n2)C1 [(1R,3R)-3-[[3-bromo-1-[3-(2-hydroxyethyl)-4-(5-methyl-1,3,4-thiadiazol-2-yl)phenyl]pyrazolo[3,4-d]pyrimidin-6-yl]amino]-N,1-dimethyl-cyclopentanecarboxamide] | 25 to 200 nM |
